Measurements as given in patent US9757368B2, “Anti-inflammatory agents” (Resverlogix Corp., priority 2009, dated 2017).

Columns and labels:
hIL-6 mRNA = test: Quantification of hIL-6 mRNA in LPS-stimulated U937 macrophages (real-time PCR); type: cell-based, human; design: key: Active: an active compound is one that causes a ≧20% inhibition in IL-6 mRNA at a concentration less than or equal to 10 μM; details: U937 cells differentiated with PMA, 1 h pretreatment, LPS 1 μg/mL, 3 h; IL-6 mRNA normalised to hCyclophilin; compound ≤10 μM
Procedure: In this example, hIL-6 mRNA in tissue culture cells was quantitated to measure the transcriptional inhibition of hIL-6 when treated with a compound of the invention.
A human leukemic monocytic lymphoma cell line (U937) was plated (3.2×10^5 cells per well) in a 96-well plate in 100 μL RPMI 1640+10% FBS, and differentiated into macrophages with PMA (60 ng/mL) for 3 days prior to the addition of the compound of interest. The cells were pretreated for 1 h with the test compound in DMSO prior to stimulation with lipopolysaccharide from Escherichia coli at 1 μg/mL. The cells were incubated for 3 h before harvest. At the time of harvest, cells were rinsed in 200 μL PBS. Cell lysis solution (70 μL) was added the cells for 10 min, and mRNA was then prepared using the “mRNA Catcher PLUS plate” (Invitrogen), according to the protocol supplied.
(§1) The eluted mRNA isolated was then used in a one-step quantitative real-time PCR reaction, using components of the UltraSense kit together with Applied Biosystems primer-probe mixes. 10 μL of template was amplified with 1.75 μL of IL-6 primer-probe, and 1 μL of hCyclophilin primer probe, and the reaction was carried out in multiplex. Real-time PCR data was analyzed, normalizing the Ct values for hIL-6 to hCyclophilin, prior to determining the fold induction of each unknown sample, relative to the control.

hVCAM-1 mRNA = test: Quantification of hVCAM-1 mRNA in TNF-α-stimulated HUV-EC-C cells (real-time PCR); type: cell-based, human; design: key: Active: an active compound is one that causes a ≧20% inhibition in VCAM-1 mRNA at a concentration less than or equal to 10 μM; details: 1 h pretreatment, TNF-α 10 ng/mL, 24 h, VCAM-1 mRNA normalised to hCyclophilin, compound ≤10 μM
Procedure: In this example, hVCAM-1 mRNA in tissue culture cells was quantitated to measure the transcriptional inhibition of hVCAM when treated with a compound of the invention.
A human umbilical vein endothelial cell line (HUV-EC-C) was plated in a 96-well plate (5.0×10^3 cells/well) in 100 μL EGM complete media and incubated for 24 h prior to the addition of the compound of interest. The cells were pretreated for 1 h with the test compound in DMSO prior to stimulation with tumor necrosis factor-α (10 ng/mL). The cells were incubated for an additional 24 h before harvest. At time of harvest, the cells were rinsed in 200 μL PBS, and cell lysis solution (70 μL) was then added the cells for 10 min. mRNA was then prepared using the “mRNA Catcher PLUS plate” (Invitrogen), according to the protocol supplied.
as §1, with “mRNA” for “mRNA isolated”, “hVCAM-1” for “IL-6”, “hVCAM-1” for “hIL-6”

Row | Structure (SMILES) | Inhibition of IL-6 expression (hIL-6 mRNA) | Inhibition of VCAM-1 expression (hVCAM-1 mRNA)
1 | COc1cc(OC)c2c(=O)[nH]c(-c3cc(C)c(OCCNCC(F)(F)F)c(C)c3)nc2c1 [Example 40, 2-{3,5-dimethyl-4-[2-(2,2,2-trifluoro-ethylamino)-ethoxy]-phenyl}-5,7-dimethoxy-3H-quinazolin-4-one] | Active | Active
2 | CNCCOc1c(C)cc(-c2nc3cc(OC)cc(OC)c3c(=O)[nH]2)cc1C [Example 42, 2-(3,5-dimethyl-4-(2-(methylamino)ethoxy)phenyl)-5,7-dimethoxyquinazolin-4(3H)-one] | Active | Active
3 | COc1cc(OC)c2c(=O)[nH]c(-c3cc(C)c(OCCNC(C)C)c(C)c3)nc2c1 [Example 44, 2-(4-(2-(isopropylamino)ethoxy)-3,5-dimethylphenyl)-5,7-dimethoxyquinazolin-4(3H)-one] | Active | Active
4 | COc1cc(OC)c2c(=O)[nH]c(-c3cc(C)c(OCCN(C)C(C)=O)c(C)c3)nc2c1 [Example 47, N-(2-(4-(5,7-dimethoxy-4-oxo-3,4-dihydroquinazolin-2-yl)-2,6-dimethylphenoxy)ethyl)-N-methylacetamide] | Active | Active
5 | COc1cc(OC)c2c(=O)[nH]c(-c3cc(C)c(OCCNC#N)c(C)c3)nc2c1 [Example 51, N-(2-(4-(5,7-dimethoxy-4-oxo-3,4-dihydroquinazolin-2-yl)-2,6-dimethylphenoxy)ethyl)cyanamide] | Active | Active
6 | COc1cc(OC)c2c(=O)[nH]c(-c3ccc4cc(CCO)[nH]c4c3)nc2c1 [Example 58, 2-[2-(2-hydroxyethyl)-1H-indol-6-yl]-5,7-dimethoxy-3H-quinazolin-4-one] | Active | Active
